Source: EP4818177A1, “TRICYCLIC DERIVATIVE INHIBITOR, AND PREPARATION METHOD AND USE THEREFOR” (Shanghai Hansoh Biomedical Co., Ltd., priority 2023, dated 2025)

target: T1, PRMT5/MEP50-MTA protein complex (Homo sapiens, UniProt O14744); assay: Thermal shift assay: change in melting temperature of the PRMT5/MEP50-MTA protein complex; format: binding; conditions: compound 8 µM, PRMT5/MEP50 2 µM, MTA 2 µM; Tm minus DMSO vehicle control
T1 construct: purchased Viva Biotech
Source text: Test Example 1: Determination of the ability of the compounds of the present invention to improve the thermal stability (melting temperature) of the PRMT5/MEP50-MTA protein complex.
1. Experimental objective: The objective of this test example is to determine the ability of the compound to improve the thermal stability of the PRMT5/MEP50-MTA protein complex, resulting in an increase in the protein melting temperature. 2. Experimental instruments: Quantitative PCR instrument (Quantstudio6 Flex) was purchased from Life Technologies; pipettes were purchased from Eppendorf or Rainin. 3. Experimental reagents and consumables: PRMT5/MEP50 protein was prepared by Viva Biotech; HEPES was purchased from Thermo Fisher Scientific (Cat. No. 15630080); DTT was purchased from Sigma (Cat. No. 43816-10ml); sodium chloride was purchased from Invitrogen (Cat. No. AM9760G); Protein Thermal Shift™ Dye Kit was purchased from Thermo Fisher Scientific (Cat. No. 4461146); methylthioadenosine (MTA) was purchased from Sigma (Cat. No. D5011). 4. Experimental methods: In this experiment, the thermal shift method was used to measure the change in the melting temperature (Tm) of the PRMT5/MEP50-MTA protein complex before and after compound binding, thereby characterising the ability of the compound to improve the thermal stability of the PRMT5/MEP50-MTA protein complex. A solution containing 50 mM HEPES, 10 mM DTT, 2 µM MTA, SYPRO Orange and 250 mM NaCl was prepared as the experimental buffer. Human PRMT5/MEP50 protein was added to a final concentration of 2 µM, and the mixture was incubated at room temperature for 30 minutes. The above reaction mixture was aliquoted into 8-strip PCR tubes at 19.5 µL per tube. Then 0.5 µL of test compound or DMSO was added to each tube, providing a total reaction volume of 20 µL and a final compound concentration of 8 µM. 2.5% DMSO was set as the vehicle control. After incubation at room temperature for 10 minutes, the PCR tubes were placed in a PCR instrument, and the melt curve function was selected to measure the melting temperature of the PRMT5/MEP50-MTA protein complex in different treatment groups (heated from 25°C to 95°C, 0.03°C/s). 5. Experimental data processing method: The experimental data files from the PCR instrument were imported into the thermal shift software to obtain the melting temperature (Tm) for each treatment group.

T1 sequence (O14744 whole entry): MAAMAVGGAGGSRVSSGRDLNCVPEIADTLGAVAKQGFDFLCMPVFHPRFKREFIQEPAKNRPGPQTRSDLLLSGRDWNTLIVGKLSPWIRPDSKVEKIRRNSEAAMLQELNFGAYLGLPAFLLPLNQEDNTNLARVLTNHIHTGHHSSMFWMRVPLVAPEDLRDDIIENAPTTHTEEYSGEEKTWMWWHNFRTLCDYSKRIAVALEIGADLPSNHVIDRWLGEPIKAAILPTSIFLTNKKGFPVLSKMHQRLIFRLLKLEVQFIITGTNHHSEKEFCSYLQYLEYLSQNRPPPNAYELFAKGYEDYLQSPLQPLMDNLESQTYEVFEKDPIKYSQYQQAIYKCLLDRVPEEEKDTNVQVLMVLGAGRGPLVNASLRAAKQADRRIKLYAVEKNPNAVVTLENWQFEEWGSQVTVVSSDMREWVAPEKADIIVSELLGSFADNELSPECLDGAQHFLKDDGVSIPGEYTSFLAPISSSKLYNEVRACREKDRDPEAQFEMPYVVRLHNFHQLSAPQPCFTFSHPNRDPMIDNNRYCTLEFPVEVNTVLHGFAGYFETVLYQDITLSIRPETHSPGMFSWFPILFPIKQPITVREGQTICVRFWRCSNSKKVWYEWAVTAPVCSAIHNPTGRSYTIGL
T1 sequence (Q9BQA1 whole entry partner): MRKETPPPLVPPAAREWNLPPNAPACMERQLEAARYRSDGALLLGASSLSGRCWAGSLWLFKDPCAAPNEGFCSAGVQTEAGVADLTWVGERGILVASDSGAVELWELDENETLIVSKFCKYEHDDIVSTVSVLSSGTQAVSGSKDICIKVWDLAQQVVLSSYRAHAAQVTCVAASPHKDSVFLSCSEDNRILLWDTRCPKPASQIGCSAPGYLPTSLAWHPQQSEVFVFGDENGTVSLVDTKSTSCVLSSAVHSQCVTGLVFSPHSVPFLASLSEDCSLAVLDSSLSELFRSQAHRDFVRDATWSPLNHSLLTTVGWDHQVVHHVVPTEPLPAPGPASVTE

Point of comparison: `CNN(C(=O)c1cc2c(cc1C)nc(N)c1cncn12)C1COCc2c1ccn1c(C(F)(F)F)cnc21` (stereo not shown) [Example 281, 4-Amino-N',7-dimethyl-N-(3-(trifluoromethyl)-7,10-dihydro-8H-imidazo[1,2-a]pyrano[3,4-c]pyridin-7-yl)imidazo[1,5-a]quinoxaline-8-carbohydrazide], ΔTm at 8 µM 12.7 °C. Against it:
- [2H]C([2H])([2H])NN(C(=O)c1cc2c3c(c(N)nc2cn1)C(C)OC3)C1COCc2c1ccn1c(C(F)(F)F)cnc21 (stereo not shown) [Example 362, 4-Amino-3-methyl-N'-(trideuteriomethyl)-N-(3-trifluoromethyl-7,10-dihydro-8H-imidazo[1,2-a]pyrano[3,4-c]pyridin-7-yl)-1,3-dihydrofuro[3,4-c] naphthyridine-8-carbohydrazide] — lower, 11.2 °C
- CNN(C(=O)c1cc2c(cn1)nc(N)c1cncn12)C1COc2cc(S(F)(F)(F)(F)F)ccc21 (racemic) [Example 385, 4-Amino-N'-methyl-N-(6-(pentafluoro-6-sulphanyl)-2,3-dihydrobenzofuran-3-yl)imidazo [1,5-a] pyrido [3,4-e] pyrazine-8-carbohydrazide] — lower, 11.6 °C
- CNN(C(=O)c1cc2c(cn1)nc(N)c1cnn(C)c12)C1COc2cc(S(F)(F)(F)(F)F)ccc21 (stereo not shown) [Example 375, 4-Amino-N',1-dimethyl-N-(6-(pentafluoro-6-sulphanyl)-2,3-dihydrobenzofuran-3-yl)-1H-pyrazolo[4,3-c][1,7]naphthyridine-8-carbohydrazide] — the same, 12.7 °C
- Cc1cc2nc(N)c3cncn3c2cc1C(=O)N(C)C1COCc2c1ccn1c(N=S(C)(C)=O)cnc21 (stereo not shown) [Example 146, 4-Amino-N-(3-((dimethyl(carbonyl)-16-sulphanylidene)amino)-7,10-dihydro-8H-imidazo[1,2-a]pyrano[3,4-c]pyridin-7-yl)-N,7-dimethylimidazo[1,5-a]quinoxaline-8-carboxamide] — lower, 10.2 °C
- Nc1nc2cc(F)c(C(=O)N(N)C3COCc4nc(C(F)(F)F)ccc43)cc2n2cncc12 (stereo not shown) [Example 280, 4-Amino-7-fluoro-N-(2-(trifluoromethyl)-5,8-dihydro-6H-pyrano[3,4-b]pyridin-5-yl)imidazo[1,5-a]quinoxaline-8-carbohydrazide] — lower, 10.9 °C
- [2H]C([2H])([2H])NN(C(=O)c1ccc2nc(N)c3cnn(C)c3c2c1)[C@@H]1COCc2c1ccn1c(C(F)(F)F)cnc21 [Example 436-P1] — lower, 11.9 °C
- CN(C(=O)c1cc2c(cc1F)nc(N)c1cncn12)C1COCc2c1ccn1c(C(F)(F)F)c(C(=O)N3CC(=C(F)F)C3)nc21 (stereo not shown) [Example 234, 4-Amino-N-(2-(3-(difluoromethylene)azetidine-1-carbonyl)-3-(trifluoromethyl)-7,10-dihydro-8H-imidazo[1,2-a]pyrano[3,4-c]pyridin-7-yl)-7-fluoro-N-methylimidazo[1,5-a]quinoxaline-8-carboxamide] — lower, 10.9 °C
- CNN(C(=O)c1cc2c(cn1)nc(N)c1cncn12)C1COCc2nc(S(F)(F)(F)(F)F)ccc21 (stereo not shown) [Example 387, 4-Amino-N'-methyl-N-(2-pentafluorosulphanyl-5,8-dihydro-6H-pyrano[3,4-b]pyridin-5-yl)imidazo[1,5-a]pyridone[3,4-e]pyrazoline-8-hydrazide] — lower, 12.6 °C
- Cc1cc2nc(N)c3cncn3c2cc1C(=O)N(C1CC(=C(F)F)C1)C1COCc2c1ccn1c(C(F)(F)F)cnc21 (stereo not shown) [Example 144, 4-Amino-N-[3-(difluoromethylene)cyclobutyl]-7-methyl-N-[5-(trifluoromethyl)-12-oxa-3,6-diazatricyclo[7.4.0.02,6]trideca-1(9),2,4,7-tetraen-10-yl]imidazo[1,5-a]quinoxaline-8-carboxamide] — lower, 10.2 °C
- CNN(C(=O)c1ccc2nc(N)c3cnn(C)c3c2c1)C1COc2cc(S(F)(F)(F)(F)F)ccc21 (racemic) [Example 450, 4-Amino-N',1-dimethyl-N-(6-(pentafluoro-6-sulphanyl)-2,3-dihydrobenzofuran-3-yl)-1H-pyrazolo[4,3-c]quinoline-8-carbohydrazide] — lower, 12 °C
- CN(C(=O)c1ccc2nc(N)c3cnn(C)c3c2c1)C1COCc2c1ccc1cc(C(F)(F)F)cnc21 (stereo not shown) [Example 68, 4-Amino-N,1-dimethyl-N-(3-(trifluoromethyl)-7,10-dihydro-8H-pyrano[4,3-h]quinolin-7-yl)-1H-pyrazolo[4,3-c]quinoline-8-carboxamide] — lower, 10.4 °C
- [2H]C([2H])([2H])NN(C(=O)c1cc2c3c(c(N)nc2cc1Cl)COC3)C1COCc2c1ccn1c(C(F)(F)F)cnc21 (stereo not shown) [Example 394, 4-Amino-7-chloro-N'-(methyl-d3)-N-(3-(trifluoromethyl)-7,10-dihydro-8H-imidazo [1,2-a]pyrano [3,4-c]pyridin-7-yl)-1,3-dihydrofuro [3,4-c] quinoline-8-carbohydrazide] — higher, 13.2 °C
- [2H]C([2H])([2H])NN(C(=O)c1ccc2nc(N)c3c(c2c1)COC3)C1COCc2c1ccn1c(C(F)(F)F)cnc21 (stereo not shown) [Example 392, 4-Amino-N'-(trideuteriomethyl)-N-(3-trifluoromethyl-7,10-dihydro-8H-imidazo [1,2-a]pyrano [3,4-c]pyridin-7-yl)-1,3-dihydrofuro [3,4-c] quinoline-8-carbohydrazide] — lower, 10.4 °C
- CN(C(=O)c1ccc2nc(N)c3cnn(C)c3c2c1)[C@@H]1COCc2c1ccn1cc(Br)nc21 [Example 37-P1, (S)-4-amino-N-(2-bromo-7,10-dihydro-8H-imidazo[1,2-a]pyrano[3,4-c]pyridin-7-yl)-N,1-dimethyl-1H-pyrazolo[4,3-c]quinoline-8-carboxamide] — lower, 10.5 °C
- Cc1cc2nc(N)c3cncn3c2cc1C(=O)N(C)C1COCc2c1ccc1nc(C(F)(F)F)cn21 (stereo not shown) [Example 48, 4-Amino-N,7-dimethyl-N-(8-(trifluoromethyl)-3,4-dihydro-1H-imidazo[1,2-a]pyrano[4,3-e]pyridin-4-yl)imidazo[1,5-a]quinoxaline-8-carboxamide] — lower, 11.7 °C
- Cc1cc2nc(N)c3cncn3c2cc1C(=O)N(C)C1COCc2c1ccn1cc(C(F)(F)F)nc21 (stereo not shown) [Example 39, 4-Amino-N,7-dimethyl-N-(2-(trifluoromethyl)-7,10-dihydro-8H-imidazo[1,2-a]pyrano[3,4-c]pyridin-7-yl)imidazo[1,5-a]quinoxaline-8-carboxamide] — lower, 11.7 °C
- CNN(C(=O)c1cc2c3c(c(N)nc2cn1)COC3)C1COc2cc(S(F)(F)(F)(F)F)ccc21 [Example 372, rel-(R)-4-amino-N'-methyl-N-(6-(pentafluoro-6-sulphanyl)-2,3-dihydrobenzofuran-3-yl)-1,3-dihydrofuro[3,4-c][1,7]naphthyridine-8-carbohydrazide] — lower, 11.2 °C
- CN(C(=O)c1ccc2nc(N)c3cnn(C)c3c2c1)C1COCc2c1ccc1nc(C(F)(F)F)cn21 (stereo not shown) [Example 81, 4-Amino-N,1-dimethyl-N-(8-(trifluoromethyl)-3,4-dihydro-1H-imidazo[1,2-a]pyrano[4,3-e]pyridin-4-yl)-1H-pyrazolo[4,3-c]quinoline-8-carboxamide] — lower, 10.4 °C
- CNN(C(=O)c1cc2c(cn1)nc(N)c1cncn12)C1COc2cc(S(F)(F)(F)(F)F)ccc21 (single isomer, unassigned) [Example 385-P1] — higher, 14 °C
- CNN(C(=O)c1cc2c3c(c(N)nc2cc1F)COC3)C1COCc2nc(C(F)(F)F)ccc21 (racemic) [Example 306] — the same, 12.7 °C

Point of comparison: `[2H]C([2H])([2H])NN(C(=O)c1cc2c3c(c(N)nc2cc1C)COC3)C1COCc2c1ccn1c(C(F)(F)F)cnc21` (single isomer, unassigned) [Example 357-P1], “ΔTm (°C)” value 12.45 °C. Against it:
- CNN(C(=O)c1cc2c(cn1)nc(N)c1cncn12)C1COc2cc(S(F)(F)(F)(F)F)ccc21 (single isomer, unassigned) [Example 385-P2] — lower, 12.31 °C

tested on: not listed separately; assay: Pharmacokinetics in rats (plasma) after oral administration; conditions: male, SD, rat, 5 mg/kg
Method: Test Example 4: Determination of the pharmacokinetics of the compounds of the present invention in rats (plasma) after oral administration.
Study objective: SD rats were used as test animals to study the pharmacokinetic behaviour of the following example compounds in rats (plasma) after oral administration at a dose of 5 mg/kg. […] Test scheme 2.1 Test drugs: Vehicle formula: 0.5% CMC-Na (1% Tween 80); the examples of the present invention, prepared in house. 2.2 Test animals: 3 SD rats per group, male, purchased from Shanghai Bikai Keyi Biotechnology Co., Ltd., with animal license number (SCXK (Shanghai) 2018-0006, No.20180006037467). 2.3 Administration: 3 SD rats per group, male, were fasted overnight and then respectively administered PO at a dose of 5 mg/kg and a volume of 10 mL/kg. 2.4 Sample collection: 0.2 mL of blood was collected from the jugular vein of rats before administration and at 0, 0.25, 0.5, 1, 2, 4, 6, 8 and 24 h after administration, and placed in EDTA-K2test tubes, and the test tubes were centrifuged at 6,000 rpm at 4°C for 6 min to separate the plasma, which was stored at -80°C. The animals were fed 4 h after administration. 2.5 Sample treatment • 1) 160 uL of acetonitrile was added to 40 uL of plasma sample for precipitation, and after mixing, the mixture was centrifuged at 3,500 × g for 5-20 minutes. • 2) 100 uL of the treated supernatant solution was taken for LC/MS/MS analysis to determine the concentration of the test compounds. 2.6 Liquid phase analysis • Liquid phase conditions: Shimadzu LC-20AD pump; • Mass spectrometry conditions: AB Sciex API 4000 mass spectrometer; • Chromatographic column: phenomenex Gemiu 5 um C18 50 × 4.6 mm; • Mobile phase: solution A: 0.1% formic acid in water, solution B: methanol; • flow rate: 1.0 mL/min; Elution time: 0-4.0 min, with eluents as follows:
Experimental results and analysis: The main pharmacokinetic parameters were calculated using WinNonlin 8.2.

Work on `Nc1nc2cnc(C(=O)N(N)C3COCc4c3ccn3c(C(F)(F)F)cnc43)cc2c2c1COC2` (stereo not shown) [Example 424, 4-Amino-N-(3-(trifluoromethyl)-7,10-dihydro-8H-imidazo[1,2-a]pyrano[3,4-c]pyridin-7-yl)-1,3-dihydrofuro[3,4-c][1,7]naphthyridine-8-carbohydrazide] yielded an AUC(0-inf) of 2380 ng·h/mL.

With `Nc1nc2cnc(C(=O)N(N)C3COCc4c3ccn3c(C(F)(F)F)cnc43)cc2c2c1COC2` (stereo not shown) [Example 424, 4-Amino-N-(3-(trifluoromethyl)-7,10-dihydro-8H-imidazo[1,2-a]pyrano[3,4-c]pyridin-7-yl)-1,3-dihydrofuro[3,4-c][1,7]naphthyridine-8-carbohydrazide] the Cmax was 226 ng/mL.

In the case of `Nc1nc2cnc(C(=O)N(N)C3COCc4c3ccn3c(C(F)(F)F)cnc43)cc2c2c1COC2` (stereo not shown) [Example 424, 4-Amino-N-(3-(trifluoromethyl)-7,10-dihydro-8H-imidazo[1,2-a]pyrano[3,4-c]pyridin-7-yl)-1,3-dihydrofuro[3,4-c][1,7]naphthyridine-8-carbohydrazide], the MRT inf is reported as 8.9 h.

Molecule `Nc1nc2cnc(C(=O)N(N)C3COCc4c3ccn3c(C(F)(F)F)cnc43)cc2c2c1COC2` (stereo not shown) [Example 424, 4-Amino-N-(3-(trifluoromethyl)-7,10-dihydro-8H-imidazo[1,2-a]pyrano[3,4-c]pyridin-7-yl)-1,3-dihydrofuro[3,4-c][1,7]naphthyridine-8-carbohydrazide] has a Tmax of 2.7 h.

Molecule `Nc1nc2cnc(C(=O)N(N)C3COCc4c3ccn3c(C(F)(F)F)cnc43)cc2c2c1COC2` (stereo not shown) [Example 424, 4-Amino-N-(3-(trifluoromethyl)-7,10-dihydro-8H-imidazo[1,2-a]pyrano[3,4-c]pyridin-7-yl)-1,3-dihydrofuro[3,4-c][1,7]naphthyridine-8-carbohydrazide] has a half-life of 6.1 h.
